Assay results taken from patent US11344567B2, “Methods of treating cancer using platanoside and isomers thereof” (SHARE GAL RESEARCH AND DEVELOPMENT LTD, priority 2018, dated 2022).

Legend:
HT-29 cell line = experiment: 3D spheroid tumor formation and growth; assay type: cell-based, human; conditions: for effect on tumor formation, treatment before tumor formation: 150 µM; for effect on growing tumors, treatment after spheroid formation: HT-29 spheroids, single dose 72 h after seeding, for additional 72 hours
Protocol: The spheroid formation potential of HT29 human colon cancer cell line was evaluated in 3D nonadherent culture condition. Initially the HT29 human cells were grown as a monolayer after which they were counted, re-suspended and plated with 1,500 cells per well in a 96-well plate pre-coated with a thin layer of 1.5% agarose (w/v) in McCoy's 5A medium containing 10% FBS and incubated at 37° C. in a humidified atmosphere of 5% CO2. Cell culture media was replaced every 2-3 days with fresh medium to remove cellular debris and the spheroids that were not well-formed. After the beginning of the multicellular tumor spheroid formation, the tested compounds were added at various concentrations (0.2, 0.4 and 0.6 mg/ml) and incubated for 24, 48 and 72 h. The number and diameter of colonies within each well were photographed and counted every day under the microscope (Olympus BX-51; Olympus, Hamburg, Germany), and the images of the representative fields were captured. Each sample was analyzed in triplicate, and all the experiments were performed three times. The viability of cells growing on the spheroids was measured by the APH (acid phosphatase) assay, which was performed according to manufacturer's instructions.
The cellular assays described above were performed in a monolayer system. Although monolayer systems partially reflect the microenvironment of cancer cells, there are currently more advanced culture methods that mimic in a better way the cellular interactions by the cells comprising the tumor (Freidrich, J. et. al.; Nat. Prot. 2009, 4, 309-324). […] This assay can be applied to test whether the compounds treatment is able of impairing tumors formation or alternately to test the effect of the treatment in growing tumors. HT-29 cell line was used for this model due to its capacity to form spheroids in vitro.

leukemia = conditions: Dimas et al. 2000; cited from earlier work
[1] = test system: methicillin-resistant Staphylococcus aureus; conditions: Ibrahim et al. 2009; cited from earlier work

Row | SMILES | effect on tumor formation, treatment before tumor formation (HT-29 cell line) | effect on growing tumors, treatment after spheroid formation (HT-29 cell line) | further results
1 | O=C(O)/C=C/c1ccc(O)cc1 [p-coumaric acid] | no effect |  | 
2 | C[C@@H]1O[C@@H](Oc2c(-c3ccc(O)cc3)oc3cc(O)cc(O)c3c2=O)[C@H](OC(=O)/C=C/c2ccc(O)cc2)[C@H](OC(=O)/C=C/c2ccc(O)cc2)[C@H]1O [Platanoside, platanoside] |  |  | anti-leukemic activity (leukemia): active as an anti-leukemic agent; anti-methicillin-resistant Staphylococcus aureus activity [1]: anti-methicillin-resistant Staphylococcus aureus
3 | CCc1c2c(nc3ccc(OC(=O)N4CCC(N5CCCCC5)CC4)cc13)-c1cc3c(c(=O)n1C2)COC(=O)[C@]3(O)CC [irinotecan] |  | didn't generate any effect | 
4 | N.N.O=C([O-])C1(C(=O)[O-])CCC1.[Pt+2] [carboplatin] |  | didn't generate any effect | 
5 | O=C1C[C@@H](c2ccc(O)cc2)Oc2cc(O)cc(O)c21 [naringenin] | no effect |  | 
